We go through two compounds from patent US12122780B2, “Pyrimidinyl group-containing tricyclic compound serving as c-Met inhibitor” (JIANGSU AOSAIKANG PHARMACEUTICAL CO., LTD., priority 2019, dated 2024).

Usually IC50 stands for the concentration that gives 50% inhibition. Read a low IC50 as greater potency. As usually defined, the bioavailability is dose-corrected exposure relative to a reference, in per cent. Read a low bioavailability as little systemic uptake.

One data set has as its target c-Met enzyme (Homo sapiens (Human), UniProt P08581). The data set is described as follows: c-Met enzyme activity inhibition (Promega c-Met Kinase Enzyme System, ADP-Glo). Type of data set: biochemical. Particulars: 10 μM ATP, 60 min, 30° C. A general note: ADP-Glo first removes unused ATP, then detects ADP through luciferase.
The test system of another data set is EBC-1 cells. The data set is described as follows: EBC-1 cell proliferation experiment (CellTiter-Glo). The data set is classed as cell-based, human. The settings on record: Homo sapiens, EBC-1, 72 h, 3 days. On the technique in general: Cellular ATP, detected with luciferase, serves as a proxy for viable cell number.
The next data set concerns Hs746T cells. The data set is described as follows: Hs746T cell proliferation experiment (CellTiter-Glo). Type of data set: cell-based. The settings on record: Homo sapiens, 96 h, 4 days. As for the experimental part: DMEM medium was purchased from Gibco, and fetal bovine serum was purchased from Hyclone. Hs746T cell line was purchased from ATCC. Envision multi-label analyzer (PerkinElmer).
Hs746T cells were seeded in a 384-well plate, 50 μL of cell suspension per well, which contained 1500 Hs746T cells. The cell plate was placed in a carbon dioxide incubator for overnight culture.
The compounds to be tested were 3-fold diluted into 9 concentrations with Tecan, double-duplicate well experiment was set, and the final compound concentrations added to the 384-well cell plate were 1000 nM to 0.15 nM. The cell plate was cultured in a carbon dioxide incubator for 4 days.
After 4 days, 25 μL of Promega CellTiter-Glo reagent was added to each well of this cell plate, and incubated at room temperature for 10 minutes to stabilize the luminescence signal. Readings were taken using a PerkinElmer Envision multi-label analyzer.
The action curves of the compounds were automatically fitted using Xlfit software and the values of IC50 were calculated, High control was the values of DMSO-treated wells and Low control was the values of cell-free medium wells.

Data set [1] is described as follows: Pharmacokinetics of single intravenous and oral administration in mice. Particulars: for Exposure AUC / Vd / clearance / half-life: intravenous injection, 1 mg/kg; for Vd / clearance / half-life / bioavailability: mouse, plasma; for Vd: read-out: Apparent volume of distribution; for clearance: read-out: Clearance rate; for half-life: read-out: Half-life (T1/2) (converted); for bioavailability / Exposure AUC0-last / Maximum blood concentration / Peak time: oral administration, 10 mg/kg. Type of data set: in vivo. As for the experimental part:
(§1) The objective of this experiment was to study the pharmacokinetics (PK) of the test compound in different species after a single intravenous and a single oral administration.
(§2) After intravenous injection or oral administration, animal blood samples were collected and the actual blood collection time was recorded. Immediately after collection, blood samples were transferred to labeled centrifuge tubes containing K2-EDTA and subsequently centrifuged and processed to obtain plasma. Plasma was transferred to pre-cooled centrifuge tubes, snap-frozen in dry ice and stored in an ultra-low temperature refrigerator at −70±10° C. until LC-MS was performed.
(§3) Plasma drug concentration data of the compounds were processed using pharmacokinetic software with a non-compartmental model. The peak concentration (Cmax) and time to peak (Tmax), as well as the quantifiable end time, were obtained directly from the blood concentration-time diagram. The log-linear trapezoidal method was used to calculate the following pharmacokinetic parameters: half-life (T1/2), apparent volume of distribution (Vdss) and clearance rate (Cl), and the area under the time-plasma concentration curve from 0 points to the end time (AUC0-last), the initial concentration (C0).

Data set [2] is described as follows: Pharmacokinetics of single intravenous and oral administration in dogs. Type of data set: in vivo. Particulars: for Vd / clearance / half-life / bioavailability: dog, plasma; for Vd / clearance / half-life / Exposure AUC: intravenous injection, 1 mg/kg; for Vd: read-out: Apparent volume of distribution; for clearance: read-out: Clearance rate; for half-life: read-out: Half-life (T1/2) (converted); for bioavailability / Exposure AUC0-last / Maximum blood concentration / Peak time: oral administration, 5 mg/kg. As for the experimental part:
as §1, §2, §3

Structures can show the parent of a compound that is named as a salt.

Sequence of c-Met enzyme (P08581 956-1390): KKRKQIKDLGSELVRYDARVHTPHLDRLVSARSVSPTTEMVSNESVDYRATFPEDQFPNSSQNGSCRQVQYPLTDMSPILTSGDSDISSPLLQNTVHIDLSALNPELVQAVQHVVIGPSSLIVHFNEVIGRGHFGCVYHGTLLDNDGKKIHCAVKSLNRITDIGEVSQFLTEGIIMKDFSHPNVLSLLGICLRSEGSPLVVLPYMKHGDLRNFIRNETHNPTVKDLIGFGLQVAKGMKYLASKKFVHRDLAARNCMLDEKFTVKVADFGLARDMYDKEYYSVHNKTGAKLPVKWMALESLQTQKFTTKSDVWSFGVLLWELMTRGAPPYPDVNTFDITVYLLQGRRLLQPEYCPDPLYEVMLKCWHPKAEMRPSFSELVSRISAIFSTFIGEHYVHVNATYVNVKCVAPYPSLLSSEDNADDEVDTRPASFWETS

Take `CC(C)(O)CN1CCC(COc2cnc(-c3cccc(Cn4c(=O)ccn5c6cc(C#N)ccc6nc45)c3)nc2)CC1` [Hydrochloride of compound 39]: at c-Met enzyme, the midpoint of inhibition, the IC50, lay at 5.51 nM. Moreover, half-maximal inhibition in the data set on EBC-1 cells (IC50) required 4.81 nM. In the data set on Hs746T cells, this compound yielded an IC50 of 1.5 nM. Moreover, in data set [1], the Exposure AUC is 1800 nM·h, the Vd came out at 7.27 L/kg, the clearance is 15.8 mL/min/kg and the half-life was 404 min. In data set [1], this compound returned a bioavailability of 82.3%, an Exposure AUC0-last of 14.9 µM·h, a Maximum blood concentration of 1070 nmol and a Peak time of 4 h. Besides, in data set [2], the Vd is 14.6 L/kg, the clearance worked out at 18.7 mL/min/kg, the half-life was 568 min and the bioavailability is 70.6%. Moreover, in data set [2], the Exposure AUC stood at 1340 nM·h, the Exposure AUC0-last is 4.74 µM·h, the Maximum blood concentration is 451 nM and the Peak time amounted to 5 h.
For the compound `CC(C)N1CCC(COc2cnc(-c3cccc(Cn4c(=O)ccn5c6cc(C#N)ccc6nc45)c3)nc2)CC1` [Hydrochloride of compound 25], on c-Met enzyme, the IC50 was 2.75 nM. Further, in the data set with EBC-1 cells, inhibition was half-maximal at 1.87 nM (IC50). This compound gave a half-inhibitory concentration (IC50) with Hs746T cells of 2.2 nM. Moreover, in data set [1], the Exposure AUC was 2080 nM·h, the Vd amounted to 5.41 L/kg, the clearance came out at 14.7 mL/min/kg and the half-life was 271 min. In addition, in data set [1], the bioavailability amounted to 27%, the Exposure AUC0-last turned out to be 5.56 µM·h, the Maximum blood concentration came to 541 nmol and the Peak time stood at 2.33 h. Further, in data set [2], the Vd was determined as 14.4 L/kg, the clearance stood at 24.2 mL/min/kg, the half-life was 472 min and the bioavailability was 57.7%. For the same compound, in data set [2], the Exposure AUC was 1230 nM·h, the Exposure AUC0-last was 3.54 µM·h, the Maximum blood concentration is reported as 246 nM and the Peak time is 4 h.
